Measurements as given in patent US7365162B2, “Stabilized bioactive peptides and methods of identification, synthesis, and use” (priority 1998, dated 2008).
Where two headings read alike, the source gives them in different places. No end group written: not given here.

What was measured:
ATPase = conditions: read-out: Binding Constant; Inhibited Protein: ATPase; cited from earlier work
Calpain = conditions: Inhibited Protein: Calpain; read-out: Binding Constant; cited from earlier work
galanin receptor = assay: Radio immunoassay, displacement of radiolabeled galanin from its receptor; assay type: binding
Procedure: Radio immunoassays (RIAs) were performed to determine the ability of galanin and its APP derivatives to displace radiolabeled galanin from its receptor.

E. coli [1] = assay type: cell-based; conditions: ALS225 cells, minimal inducing plate (M9 glycerol Amp IPTG), grid patching
E. coli [2] = assay: Growth rate analysis in liquid media of cells expressing induced peptides; assay type: cell-based; conditions: for % Inhibition (of the growth rate): ALS225, minimal media, 1 mM IPTG, versus induced pLAC11 vector, average of three determinations; for % inhibition versus pLAC11 control (inhibitory peptide): induced inhibitor; for % inhibition versus pLAC11 control (inhibitory peptide) / % inhibition versus pLAC11 control (antisense construct): growth rate; for % inhibition versus pLAC11 control (antisense construct): ATG start codon converted to ACG, induced
Nicotinic Acetylcholine = conditions: read-out: Binding Constant; cited from earlier work
[3] = Steif et al. 1993; cited from earlier work

Molecule	Type (one day / two day inhibitor) (E. coli [1])	% Inhibition (of the growth rate) (E. coli [2]) [%]	further results
Myotoxin (29-42)	–	–	Kd (ATPase): 19 µM
SCP (153-180)	–	–	Kd (Calpain): 30 nM
galanin with the APP (Ala-Pro-Pro) motif at the amino terminus [APP-galanin]	–	–	Ki (galanin receptor): 6.42 nM
pPep5: 16 aa inhibitor peptide encoded by clone pPep5 (SEQ ID NO:36) (MWRDSWIKGRDVGFMG; stabilized peptide)	1 Day (able to prevent the growth of the E. coli bacteria at 24 hours)	24	% inhibition versus pLAC11 control (inhibitory peptide) (E. coli [2]): 23%
pPep6: 42 aa inhibitor peptide (SEQ ID NO:39); last 25 aa could form a hydrophobic membrane-spanning domain (MSGGHVTRECKSAMSNRWIYVIRILMFDSLSSISFNAVVYHS; also: stabilized peptide)	1 Day (able to prevent the growth of the E. coli bacteria at 24 hours)	27	–
pPep7: 6 aa inhibitor peptide (SEQ ID NO:40) (MYLFIG; stabilized peptide)	1 Day (able to prevent the growth of the E. coli bacteria at 24 hours)	26	–
pPep8: 21 aa inhibitor peptide (SEQ ID NO:43) (MLLFGGDCGKAGYFTVLPSR; stabilized peptide)	1 Day (able to prevent the growth of the E. coli bacteria at 24 hours)	29	–
pPep10: 20 aa inhibitor peptide (SEQ ID NO:45) (MIGGSLSFAWAIVCNKNSHV; stabilized peptide)	1 Day (able to prevent the growth of the E. coli bacteria at 24 hours)	24	–
pPep12: 14 aa two day inhibitor peptide (SEQ ID NO:46), two prolines near the C-terminus; printed pPep22 in Table 10 (MNGRTKRIRDPPAA; stabilized peptide)	two day	82	Type (one day / two day inhibitor) (E. coli [1]; listed as pPep22): 2 Day (able to prevent the growth of the E. coli bacteria at 48 hours); % inhibition versus pLAC11 control (inhibitory peptide) (E. coli [2]): 80%
pPep13: 18 aa inhibitor peptide (SEQ ID NO:48), C-terminal proline (MDREVMCAAKQEWKERTP; stabilized peptide)	1 Day (able to prevent the growth of the E. coli bacteria at 24 hours)	28	% inhibition versus pLAC11 control (inhibitory peptide) (E. coli [2]): 28%
pPep17: 12 aa inhibitor peptide (SEQ ID NO:51), C-terminal proline (MLGLEATYPFNP; stabilized peptide)	1 Day (able to prevent the growth of the E. coli bacteria at 24 hours)	28	–
pPep19: 5 aa inhibitor peptide (SEQ ID NO:52) (MRGAN; stabilized peptide)	1 Day (able to prevent the growth of the E. coli bacteria at 24 hours)	29	% inhibition versus pLAC11 control (inhibitory peptide) (E. coli [2]): 29%
α-Conotoxin GIA	–	–	Kd (Nicotinic Acetylcholine): 1 nM
Rop: small 63 amino acid four-helix bundle protein from the ColEl replicon, used as stabilizing group (protein, UniProt P03051 1-63, looked up) Regulatory protein rop: MTKQEKTALNMARFIRSQTLTLLEKLNELDADEQADICESLHDHADELYRSCLARFGDDGENL	–	–	midpoint temperature of denaturation, Tm [3]: about 71 °C
pPep12-anti: pPep12 insert recloned in pLAC11 with ATG start codon changed to ACG (SEQ ID NO:31) (nucleic acid, expressed or natural sequence) DNA: TACTATAGATCTACGAACGGCCGAACCAAACGAATCCGGGACCCACCAGCCGCCTAAACAGCTACCAGCTGTGGTAATAAGAATTCTCGACA	–	–	% inhibition versus pLAC11 control (antisense construct) (E. coli [2]): 0%
pPep5-anti: pPep5 insert recloned in pLAC11 with ATG start codon changed to ACG (SEQ ID NO:30) (nucleic acid, expressed or natural sequence) DNA: TACTATAGATCTACGTGGCGGGACTCATGGATTAAGGGTAGGGACGTGGGGTTTATGGGTTAAAATAGTTTGATAATAAGAATTCTCGACA	–	–	% inhibition versus pLAC11 control (antisense construct) (E. coli [2]): 0%
pPep13-anti: pPep13 insert recloned in pLAC11 with ATG start codon changed to ACG (SEQ ID NO:32) (nucleic acid, expressed or natural sequence) DNA: TACTATAGATCTACGGACCGTGAAGTGATGTGTGCGGCAAAACAGGAATGGAAGGAACGAACGCCATAGGCCGCGTAATAAGAATTCTCGACA	–	–	% inhibition versus pLAC11 control (antisense construct) (E. coli [2]): 0%
pPep19-anti: pPep19 insert recloned in pLAC11 with ATG start codon changed to ACG (SEQ ID NO:33) (nucleic acid, expressed or natural sequence) DNA: TACTATAGATCTACGAGGGGCGCCAACTAAGGGGGGGGGAAGGTATTTGTCCCGTGCATAATCTCGGGTGTTGTCTAATAAGAATTCTCGACA	–	–	% inhibition versus pLAC11 control (antisense construct) (E. coli [2]): 0%
pPep1-anti: pPep1 insert recloned in pLAC11 with ATG start codon changed to ACG (SEQ ID NO:29) (nucleic acid, expressed or natural sequence) DNA: TACTATAGATCTACGGTCACTGAATTTTGTGGCTTGTTGGACCAACTGCCTTAGTAATAGTGGAAGGCTGAAATTAATAAGAATTCTCGACA	–	–	% inhibition versus pLAC11 control (antisense construct) (E. coli [2]): 0%
